The text below walks through data of patent US20130317055A1, “NEURONAL NICOTINIC AGONIST AND METHODS OF USE” (ABBVIE INC., priority 2012, published 2013).

The subject of experiment [1] is clinically stable subjects with schizophrenia. In words: Clinical Study A: CANTAB cognition battery. The following applies: 10 mg and 25 mg. The experiment is classed as in vivo, human. The source says: A Phase 2a proof-of-concept (POC) study in clinically stable subjects with schizophrenia who were clinically stable and received stable doses of atypical antipsychotic therapy. The study was a Phase 2, multi-center, randomized, double-blind, placebo-controlled, parallel group study designed to evaluate the safety and efficacy of doses of (4s)-4-(5-phenyl-1,3,4-thiadiazol-2-yloxy)-1-azatricyclo[3.3.1.1^3,7]decane (Compound A) in clinically stable male and female subjects (ages 20 to 55, inclusive) with a Diagnostic and Statistical Manual of Mental Disorders Fourth Edition, Text Revision (DSM-IV-TR) diagnosis of schizophrenia. […] The criteria for clinical stability was determined by a combination of retrospective data (over the 4 months prior to the start of Screening, which will be supported by clinical records, patient, identified responsible contact person, and physician interviews), and prospective data assessed during the Prospective Stabilization Period of 28 to 42 days duration. […]
The primary endpoint was the MCCB composite score, and the primary endpoint analysis was the change on the MCCB composite score from baseline to endpoint versus placebo. Other secondary measures included the MCCB domains, the NSA-16, the CANTAB cognition battery (measured at different time points from the MCCB), and the UPSA-2. […]

The test system is the same in experiment [2]. In words: Clinical Study A: UCSD Performance-Based Skills Assessment-2 (UPSA-2). Format: in vivo, human. The following applies: for UPSA-2 Total Score: Difference from Placebo LS Mean (SE) of Difference / UPSA-2 Total Score: LS Mean (SE) of Change: Baseline to Final Evaluation, ANCOVA; for UPSA-2 Total Score: Observed Mean (SD) Final: Final Evaluation. From the text:
A Phase 2a proof-of-concept (POC) study in clinically stable subjects with schizophrenia who were clinically stable and received stable doses of atypical antipsychotic therapy. The study was a Phase 2, multi-center, randomized, double-blind, placebo-controlled, parallel group study designed to evaluate the safety and efficacy of doses of (4s)-4-(5-phenyl-1,3,4-thiadiazol-2-yloxy)-1-azatricyclo[3.3.1.1^3,7]decane (Compound A) in clinically stable male and female subjects (ages 20 to 55, inclusive) with a Diagnostic and Statistical Manual of Mental Disorders Fourth Edition, Text Revision (DSM-IV-TR) diagnosis of schizophrenia. Psychiatric diagnoses were confirmed using the Mini-International Neuropsychiatric Interview (MINI) version 6.0.0. The criteria for clinical stability was determined by a combination of retrospective data (over the 4 months prior to the start of Screening, which will be supported by clinical records, patient, identified responsible contact person, and physician interviews), and prospective data assessed during the Prospective Stabilization Period of 28 to 42 days duration.
The study was a Phase 2, multi-center, randomized, double-blind, placebo-controlled, parallel group study designed to evaluate the safety and efficacy of doses of (4s)-4-(5-phenyl-1,3,4-thiadiazol-2-yloxy)-1-azatrieyclo[3.3.1.1^3,7]decane, which is also recognized as Compound A, in treating cognitive deficits in subjects with schizophrenia who were clinically stable and receiving one or two atypical antipsychotic medications. Study drug was administered orally.
The study consisted of a screening period of at least 28 and up to 42 days, a 84-day outpatient treatment period, a 14-day post-treatment period, and a post-treatment follow-up period. The screening period consisted of three visits: Screening Visit 1, Screening Visit 2, and Day −1. Upon completion of Day −1 procedures, eligible subjects were randomized through an Interactive Voice Response/Interactive Web-Based (IVR/IWB) system. Subjects were randomized in an equal ratio to one of three treatment groups (placebo, 10 mg Compound A, or 25 mg Compound A).
Subjects were randomized in a 1:1:1 ratio with placebo, 10 mg QD Compound A, of 25 mg Compound A. Each subject was instructed to take study drug once-daily in the morning for 12 weeks. Each daily dose was preferably taken with food. The subject and investigator were blinded to the treatment assignment throughout the study. The treatment assignments for the study subjects are shown below in Table 1.
The primary endpoint was the MCCB composite score, and the primary endpoint analysis was the change on the MCCB composite score from baseline to endpoint versus placebo. Other secondary measures included the MCCB domains, the NSA-16, the CANTAB cognition battery (measured at different time points from the MCCB), and the UPSA-2. The Positive and Negative Syndrome Scale (PANSS) was included to document stability in schizophrenia symptomatology.
The UCSD Performance-Based Skills Assesstnent-2 (UPSA-2) is a role-play test designed for subjects with schizophrenia to evaluate cognitive functional capacity in six selected domains of basic living skills. These areas include Organization/Planning Financial Skills, Communication, Transportation, Household Management, and Medication Management. […] Scores were obtained for each subtest, and the total score was the sum of these subtests. […] The UPSA-2 required an average of 30 minutes to administer. The UPSA-2 was administered in on Days 14, 28, 56, 84 and 98.

Consider `c1ccc(-c2nnc(O[C@@H]3C4CC5C[C@H]3C[N@](C5)C4)s2)cc1` [Compound A, (4s)-4-(5-phenyl-1,3,4-thiadiazol-2-yloxy)-1-azatricyclo[3.3.1.1^3,7]decane], for which, in experiment [1], the “CANTAB battery results relative to MCCB results” value is reported as “consistent”. Moreover, in experiment [2] (10 mg QD), the “UPSA-2 Total Score: Difference from Placebo LS Mean (SE) of Difference” value is recorded as 0.51 (2.15), the “UPSA-2 Total Score: LS Mean (SE) of Change” value is recorded as 2.78 (1.52) and the “UPSA-2 Total Score: Observed Mean (SD) Final” value is given as 87.98 (20.36). In experiment [2] (25 mg QD), the “UPSA-2 Total Score: Difference from Placebo LS Mean (SE) of Difference” value is 0.63 (2.34), the “UPSA-2 Total Score: LS Mean (SE) of Change” value was 2.89 (1.70) and the “UPSA-2 Total Score: Observed Mean (SD) Final” value was 94.29 (15.85). The “UPSA-2 composite score: significance versus placebo” value in experiment [2] (either dose group (10 mg, 25 mg)) is given as “No significance”.
